Experimental data: paper PMC6526634, “Preparation of bioactive peptides with antidiabetic, antihypertensive, and antioxidant activities and identification of α‐glucosidase inhibitory peptides from soy protein” (Food Science & Nutrition, 2019)
Where a SMILES comes first, the peptide text is derived from it.

Columns and labels:
[1] = Ferric reducing antioxidant power (FRAP) activity; conditions: 1, 2, 5, 10, and 20 mg/ml, potassium ferricyanide, pH 6.6, 50℃, 30 min, absorbance 700 nm
Method: The FRAP assay was used to determine the antioxidative of the samples using the method described by Tsai et al with some modifications (Tsai, Huang, & Mau, 2006) and to configure the sample solution with the concentration of 1, 2, 5, 10, and 20 mg/ml. Using 1 ml of sample mixed with 2.5 ml of 0.2 mol/L sodium phosphate buffer (pH 6.6) and 2.5 ml of 1% potassium ferricyanide solution incubated at 50℃ for 30 min, add 2.5 ml of 10% trichloroacetic acid solution, centrifuged at 1,042 g for 10 min, and then collected 2.5 ml of supernatant mixed with 2.5 ml of distilled water and 0.5 ml of 0.1% ferric chloride solution. The absorbance at 700 nm was measured after 10 min by a 754 PC spectrophotometer (Shanghai, China). FeSO4 aqueous solution was used as positive control.

[2] = target: T1, α‐glucosidase from Saccharomyces cerevisiae (Saccharomyces cerevisiae, UniProt P53341); test: α‐glucosidase inhibitory activity assay; format: biochemical
T1 construct: purchased Sigma-Aldrich
Method: All other chemicals and reagents were of analytical grade and commercially available.
α‐glucosidase inhibitory activity assay was performed according to a method by Kim with slight modifications (Kim, Wang, & Rhee, 2004). The α‐glucosidase inhibitory rate of the hydrolysate was estimated in a 96‐well microplate using a MR‐96A microplate reader (Mindray) by monitoring the amount of 4‐nitrophenol (PNP) released from 4‐nitrophenol‐α‐D‐glucopyranoside (PNPG). A dose (50 μl) of sodium phosphate buffer (pH 6.8, 0.2 M), 50 μL of PNPG (1 mg/ml) dissolved in sodium phosphate buffer, and 50 μl of the samples dissolved in the same buffer were mixed adequately in a 96‐well microplate. Then, it was incubated for 5 min at 37°C, and the reaction started immediately followed by the addition of 10 μl of α‐glucosidase solution (0.2 U/ml of the buffer). The plate was incubated for another 30 min at 37°C, and then, the reaction was terminated by the addition of 80 μl of 1 M Na2CO3 solution. The absorbance of released product PNP was measured immediately at 405 nm. […] The percentage of α‐glucosidase inhibition was calculated as follows:(1) α-glucosidase inhibition rate%=ODA-ODS/ODA-ODB×100 where ODA is the absorbance of the supernatant in which the sample is replaced by the same amount of buffer; ODS is the absorbance of the supernatant with the tested sample; and ODBis the absorbance of the supernatant in which the tested sample and α‐glucosidase solution are replaced by the same amount of buffer.

[3] = Hydroxyl radical scavenging ability; conditions: Fenton reaction, salicylic acid, 37℃, 30 min, absorbance 510 nm; mean ± SD of three replicates
Method: The antioxidant activity of the soy protein peptides was determined by a hydroxyl radical scavenging assay involving in the Fenton reaction, according to Hanasaki (Hanasaki, Ogava, & Fukui, 1994). The samples were prepared into 0.1, 0.5, 2, 5, and 10 mg/ml. Then, 1 ml of 9 µmol/L FeSO4 solution and 1 ml of salicylic acid–ethanol solution (9 µmol/L，50% ethanol solution) were added respectively and mixed well, with the addition of 1 ml of […] H2O2 (0.03%) reaction initiated. The mixture was incubated in a 37℃ water bath for 30 min and then centrifuged at 2,896 g for 5 min to remove the precipitation. The absorbance of the supernatant was measured at 510 nm. The hydroxyl radical clearance rate was calculated as follows:(4) Hydroxyl radical clearance rate%=1-A1-A2/A0×100 where A 1 is the absorbance of the sample supernatant, A 2 is the absorbance of the supernatant in which the salicylic acid–ethanol is replaced by the same amount of ethanol, and A 0 is the absorbance of the supernatant in which the sample is replaced by distilled water. The ascorbic acid was used as a positive control.

T1 sequence (P53341 whole entry): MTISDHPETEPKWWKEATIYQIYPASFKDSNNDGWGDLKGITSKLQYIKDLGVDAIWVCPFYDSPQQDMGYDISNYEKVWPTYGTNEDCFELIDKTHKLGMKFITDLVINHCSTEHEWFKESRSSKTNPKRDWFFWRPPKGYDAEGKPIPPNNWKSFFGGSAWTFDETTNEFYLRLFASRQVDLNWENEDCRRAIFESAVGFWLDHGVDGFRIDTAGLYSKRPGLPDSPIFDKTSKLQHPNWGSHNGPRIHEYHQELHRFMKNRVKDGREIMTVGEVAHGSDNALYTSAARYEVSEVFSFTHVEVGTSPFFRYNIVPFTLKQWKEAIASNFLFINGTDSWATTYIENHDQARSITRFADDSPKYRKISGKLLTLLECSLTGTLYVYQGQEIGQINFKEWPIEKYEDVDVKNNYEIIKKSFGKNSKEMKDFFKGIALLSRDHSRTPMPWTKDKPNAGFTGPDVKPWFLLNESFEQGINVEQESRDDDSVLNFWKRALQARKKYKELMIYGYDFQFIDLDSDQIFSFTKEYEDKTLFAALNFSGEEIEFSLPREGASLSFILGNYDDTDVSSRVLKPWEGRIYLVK

Question: For ferrous sulfate [FeSO4], which “iron ion reduction ability (FRAP)” value [1] is on record?
Answer: linearly related to concentration

Question: And the “iron ion reduction ability (FRAP)” value ([1]; listed as ferrous sulfate)?
Answer: stronger reduction ability

Question: Which IC50 [2] does the source give for `CC(C)C[C@H](NC(=O)[C@H](CCCNC(=N)N)NC(=O)[C@H](CC(C)C)NC(=O)[C@@H](N)Cc1c[nH]c2ccccc12)C(=O)O` [WLRL] (H-WLRL-OH) here?
Answer: 165.3 ± 0.74 µM

Question: Which IC50 [2] does the source give for `CC(C)C[C@H](NC(=O)[C@@H](NC(=O)[C@@H]1CCCN1C(=O)[C@H](CC(C)C)NC(=O)[C@@H]1CCCN1C(=O)[C@H](CC(C)C)NC(=O)[C@@H](N)CC(C)C)C(C)C)C(=O)N[C@@H](CCCCN)C(=O)O` (H-LLPLPVLK-OH) here?
Answer: 237.4 ± 0.52 µM

Question: With “MLPVMR [hexapeptide identified from soy protein AP hydrolysate fraction H1‐2, then synthesized]” as the compound, how does the “α‐glucosidase inhibition, result in words” value ([2]; synthetic peptide or DEAE‐52 fraction, test concentration not given) read?
Answer: did not show inhibitory activity

Question: For `CC(C)C[C@H](NC(=O)[C@H](CCCNC(=N)N)NC(=O)[C@H](CC(C)C)NC(=O)[C@H](Cc1c[nH]c2ccccc12)NC(=O)[C@@H](N)CO)C(=O)O` [SWLRL] (H-SWLRL-OH), which IC50 [2] is on record?
Answer: 182.1 ± 0.74 µM

Question: For `O=C1O[C@H]([C@@H](O)CO)C(O)=C1O` [vitamin C, ascorbic acid], which “hydroxyl radical scavenging ability IC50” value [3] is on record?
Answer: 0.54 ± 0.04 mg/mL
